# Reference: PMC7673538 (PLoS Biology, 2020)
# “And” between values parts separate entries of the source, which are not always exact repeats. Equal entries are not always repeated. Where two headings read alike, the source gives them in different places.
# Experiments:
# HRV-A2 = test: microbe, parasite or virus in culture; format: cell-based, human rhinovirus
# HRV-B14 = test: microbe, parasite or virus in culture; format: cell-based, human rhinovirus
# EV-D68 = test: microbe, parasite or virus in culture; format: cell-based, enterovirus D68
# PV-1 = test: microbe, parasite or virus in culture; format: cell-based, poliovirus 1
# human NET = target: T1, human NET (Homo sapiens, UniProt P23975); format: cell-based; details: for NET, Mean (Figure 8B): Control = 100; for NET, Mean as % (Figure 8B): Control = 100%
# T1 construct: expressed in transfected cells; host or cells: HEK293 (gift of Dr. Hoener, F. Hoffmann-La Roche)
# T1 sequence (P23975 whole entry): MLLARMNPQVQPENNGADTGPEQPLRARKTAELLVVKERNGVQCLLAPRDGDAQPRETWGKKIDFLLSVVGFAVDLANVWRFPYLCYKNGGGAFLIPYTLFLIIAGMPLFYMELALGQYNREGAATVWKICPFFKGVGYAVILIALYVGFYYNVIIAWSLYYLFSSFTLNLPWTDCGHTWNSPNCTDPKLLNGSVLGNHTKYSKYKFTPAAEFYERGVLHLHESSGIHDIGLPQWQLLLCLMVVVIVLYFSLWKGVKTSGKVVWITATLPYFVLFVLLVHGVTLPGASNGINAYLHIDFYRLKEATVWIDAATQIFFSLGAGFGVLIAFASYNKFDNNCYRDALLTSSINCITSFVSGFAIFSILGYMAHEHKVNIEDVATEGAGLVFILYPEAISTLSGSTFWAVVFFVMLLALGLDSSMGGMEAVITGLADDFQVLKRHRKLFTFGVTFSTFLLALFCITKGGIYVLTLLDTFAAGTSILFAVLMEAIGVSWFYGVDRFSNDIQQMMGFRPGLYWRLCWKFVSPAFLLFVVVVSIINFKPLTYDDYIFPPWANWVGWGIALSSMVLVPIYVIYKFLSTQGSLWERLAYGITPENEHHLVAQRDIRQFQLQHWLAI
structure (smiles),measurement,setting,value
"O=C(c1cc[nH]c1)N(Cc1ccc(F)cc1)c1ccccc1 [Compound 12b, N-(4-Fluorobenzyl)-N-phenyl-1H-pyrrole-3-carboxamide]","Figure 7 dose-response raw data, HRV-A2 (triplicate values)",HRV-A2; Concentration 1.1111 µM,12.6155 and 14.1446 and 14.4314
same,"Figure 7 dose-response raw data, HRV-A2 (triplicate values)",HRV-A2; Concentration 3.3333 µM,83.2845 and 84.4313 and 84.7181
same,"Figure 7 dose-response raw data, HRV-A2 (triplicate values)",HRV-A2; Concentration 11.1111 µM,99.5652 and 104.147 and 110.034
same,"Figure 7 dose-response raw data, HRV-A2 (triplicate values)",HRV-A2; Concentration 33.3333 µM,100.093 and 102.52 and 105.578
same,"Figure 7 dose-response raw data, HRV-A2 (triplicate values)",HRV-A2; Concentration 100 µM,100.093 and 102.52 and 105.578
same,EC50,"HRV-A2; Human rhinovirus sp., HRV2 / HRVA2, HeLa R19, read-out: Table in Figure 7A, HRV2, AVERAGE",2750 nM
same,EC50,"HRV-A2; Human rhinovirus sp., HRV2 / HRVA2, HeLa R19, read-out: Table in Figure 7A, HRV2, exp1-exp3",2760 nM
same,EC50,"HRV-A2; read-out: Table in Figure 7A, HRV2, exp1-exp3",3210 nM and 2280 nM
same,"Figure 7 dose-response raw data, HRV_B14 (triplicate values)",HRV-B14; Concentration 0.0046 µM,15.2266 and 14.5606
same,"Figure 7 dose-response raw data, HRV_B14 (triplicate values)",HRV-B14; Concentration 0.0137 µM,10.2522 and 17.3246 and 10.943
same,"Figure 7 dose-response raw data, HRV_B14 (triplicate values)",HRV-B14; Concentration 0.0412 µM,15.2266 and 14.5606 and 17.3246
same,"Figure 7 dose-response raw data, HRV_B14 (triplicate values)",HRV-B14; Concentration 0.1235 µM,106.02 and 106.455 and 105.786
same,"Figure 7 dose-response raw data, HRV_B14 (triplicate values)",HRV-B14; Concentration 0.3704 µM,105.351 and 107.391 and 106.589
same,"Figure 7 dose-response raw data, HRV_B14 (triplicate values)",HRV-B14; Concentration 1.1111 µM,98.3946 and 107.926 and 101.94
same,"Figure 7 dose-response raw data, HRV_B14 (triplicate values)",HRV-B14; Concentration 3.3333 µM,99.5652 and 104.147 and 110.034
same,"Figure 7 dose-response raw data, HRV_B14 (triplicate values)",HRV-B14; Concentration 11.1111 µM,98.3946 and 107.926 and 101.94
same,"Figure 7 dose-response raw data, HRV_B14 (triplicate values)",HRV-B14; Concentration 33.3333 µM,99.2522 and 114.147 and 100.034
same,"Figure 7 dose-response raw data, HRV_B14 (triplicate values)",HRV-B14; Concentration 100 µM,99.5652 and 104.147 and 100.034
same,EC50,"HRV-B14; Human rhinovirus sp., HRV14 / HRVB14, HeLa R19, read-out: Table in Figure 7A, HRV14, AVERAGE",95.3 nM
same,EC50,"HRV-B14; Human rhinovirus sp., HRV14 / HRVB14, HeLa R19, read-out: Table in Figure 7A, HRV14, exp1-exp3",112 nM
same,EC50,"HRV-B14; Human rhinovirus sp., HRVB14, HeLa R19, read-out: EC50 HRV-B14",95 ± 120 nM
same,EC50,"HRV-B14; read-out: Table in Figure 7A, HRV14, exp1-exp3",90 nM and 84 nM
same,"Figure 7 dose-response raw data, EV-D68 (triplicate values)",EV-D68; Concentration 0.001 µM,11.1333 and 12.4782 and 12.9265
same,"Figure 7 dose-response raw data, EV-D68 (triplicate values)",EV-D68; Concentration 0.0046 µM,12.1793 and 12.9265 and 15.0187
same,"Figure 7 dose-response raw data, EV-D68 (triplicate values)",EV-D68; Concentration 0.0137 µM,11.1333 and 12.4782 and 12.9265
same,"Figure 7 dose-response raw data, EV-D68 (triplicate values)",EV-D68; Concentration 0.0412 µM,10.386 and 11.4321 and 12.9265
same,"Figure 7 dose-response raw data, EV-D68 (triplicate values)",EV-D68; Concentration 0.1235 µM,107.007 and 105.506 and 109.76
same,"Figure 7 dose-response raw data, EV-D68 (triplicate values)",EV-D68; Concentration 0.3704 µM,98.999 and 100.501 and 112.888
same,"Figure 7 dose-response raw data, EV-D68 (triplicate values)",EV-D68; Concentration 1.1111 µM,104.38 and 102.252 and 111.637
same,"Figure 7 dose-response raw data, EV-D68 (triplicate values)",EV-D68; Concentration 3.3333 µM,103.504 and 113.389
same,"Figure 7 dose-response raw data, EV-D68 (triplicate values)",EV-D68; Concentration 10 µM,95.6204 and 100.626 and 112.763
same,EC50,"EV-D68; Enterovirus D, EVD68, HeLa R19, read-out: EC50 EV-D68",86 ± 7.1 nM
same,EC50,"EV-D68; Enterovirus D, EVD68, HeLa R19, read-out: Table in Figure 7A, EVD68, AVERAGE",85.7 nM
same,EC50,"EV-D68; Enterovirus D, EVD68, HeLa R19, read-out: Table in Figure 7A, EVD68, exp1-exp3",88 nM
same,EC50,"EV-D68; read-out: Table in Figure 7A, EVD68, exp1-exp3",93 nM and 76 nM
same,"Figure 7 dose-response raw data, PV-1 (triplicate values)",PV-1; Concentration 0.0046 µM,11.045 and 11.5939
same,"Figure 7 dose-response raw data, PV-1 (triplicate values)",PV-1; Concentration 0.0137 µM,11.045 and 11.5939
same,"Figure 7 dose-response raw data, PV-1 (triplicate values)",PV-1; Concentration 0.0412 µM,11.045 and 11.8683 and 12.5543
same,"Figure 7 dose-response raw data, PV-1 (triplicate values)",PV-1; Concentration 0.1235 µM,9.9474 and 11.3195 and 12.0055
same,"Figure 7 dose-response raw data, PV-1 (triplicate values)",PV-1; Concentration 0.3704 µM,13.3775 and 12.0055 and 11.7311
same,"Figure 7 dose-response raw data, PV-1 (triplicate values)",PV-1; Concentration 1.1111 µM,20.2378 and 15.8472 and 16.3961
same,"Figure 7 dose-response raw data, PV-1 (triplicate values)",PV-1; Concentration 3.3333 µM,109.849 and 103.263 and 104.772
same,"Figure 7 dose-response raw data, PV-1 (triplicate values)",PV-1; Concentration 11.1111 µM,100.535 and 102.561 and 105.184
same,"Figure 7 dose-response raw data, PV-1 (triplicate values)",PV-1; Concentration 33.3333 µM,94.7887 and 93.7377 and 106.219
same,"Figure 7 dose-response raw data, PV-1 (triplicate values)",PV-1; Concentration 100 µM,94.2632 and 96.1025 and 105.824
same,EC50,"PV-1; Enterovirus C, HeLa R19, read-out: Table in Figure 7A, Polio, AVERAGE",1390 nM
same,EC50,"PV-1; Enterovirus C, HeLa R19, read-out: Table in Figure 7A, Polio, exp1-exp3",1760 nM
same,EC50,"PV-1; read-out: Table in Figure 7A, Polio, exp1-exp3",1420 nM and 990 nM
same,"NET, Mean (Figure 8B)",human NET; 1µM,100
same,"NET, Mean as % (Figure 8B)",human NET; 1µM,100%
same,"NET, Mean (Figure 8B)",human NET; 100µM,103.417
same,"NET, Mean as % (Figure 8B)",human NET; 100µM,103%
same,inhibition of NET function (in words),"human NET; HEK293 cells expressing human NET, 1 μM or 100 μM","neither 12a, 19b, 19d, nor the combined compound 12b inhibited"
